According to publication PMC12297997, “Differential Emodepside Efficacy in Drug-Resistant and Drug-Susceptible Ancylostoma caninum Highlights Variability in Potassium Channel Activity” (Tropical Medicine and Infectious Disease, 2025):
Like-named read-outs stand apart in the source and are kept apart here.

Experiments:
[1] = tested on: Ancylostoma caninum L3, drug-susceptible (WMD) isolate; test: In vitro L3 larval survival assay, drug-susceptible WMD isolate; assay type: cell-based
Method: (§1) The wild-type (WMD) and triple-anthelmintic-resistant (BCR) isolates of A. caninum used in this study have been previously described. […] Both isolates were maintained in beagles according to established protocols.
(§2) Stock solutions of pyrantel, ivermectin, and emodepside were prepared in appropriate solvent mixtures of DMSO and BU buffer (50 mM Na2HPO4, 22 mM KH2PO4, 70 mM NaCl, pH 6.8). To account for solubility differences, pyrantel was prepared in 20% DMSO, ivermectin in 4% DMSO, and emodepside in 25% DMSO. Penitrem A was dissolved in 100% DMSO to make a 500 µM stock solution. A vehicle control solution was also prepared for each drug, containing the maximum DMSO concentration used in the stock solutions to ensure that solvent effects across treatments were adequately controlled.
(§3) Infective A. caninum L3 were collected from coproculture at least 7 days post-culture using a modified Baermann method and stored in BU in a 50 mL culture flask at room temperature for up to four weeks prior to use. The survival assay to evaluate the response of A. caninum L3 to various anthelmintics was adapted from a previously established motility assessment study.
(§4) Prior to use, L3 were surface sterilized by incubation in 1% (v/v) HCl for 30 min, followed by two washes with sterile BU buffer. The sterilized larvae were resuspended in BU to a concentration of 75 L3 per 90 µL. Larvae were transferred in aliquots of 90 µL to individual wells in a 96-well plate, and 10 µL of the appropriate drug or control solution was added to each well, bringing the final volume to 100 µL. Plates were incubated at room temperature in the dark for 24 h.
(§5) Following incubation, survival was assessed by adding 50 microliters of 50° C water to each well immediately before counting. […] For each well, the total number of living and dead L3 were counted, and percent survival was calculated as below:(1) Survival (%)=[…]
(§6) Microsoft Excel was used to normalize raw survival percentages to their respective controls and calculate standard deviation for each condition. Statistical analysis was performed using GraphPad Prism (ver. 10, GraphPad Software, La Jolla, CA, USA). Using the mean, standard deviation, and sample size calculated in Excel, multiple unpaired t-tests were performed to determine the individual variance in means between WMD and BCR.

[2] = tested on: Ancylostoma caninum L3, triple-anthelmintic-resistant (BCR) isolate; test: In vitro L3 larval survival assay, triple-anthelmintic-resistant BCR isolate; assay type: cell-based; details: for Difference in mean survival between BCR and WMD: BCR versus WMD L3, across all tested concentrations (4–40 µg/mL), two-tailed unpaired t-test, p < 0.0001
Method: as §1, §2, §3, §4, §5, §6

[3] = stated without reference; cited from earlier work
[4] = cited from earlier work; for Corresponding Cmax: po
MADR A. caninum = tested on: MADR A. caninum; set-up: method as in PMID 36520649; details: dogs infected with MADR A. caninum; cited from earlier work
[5] = tested on: Ancylostoma caninum L3, drug-susceptible (WMD) isolate; test: Emodepside + penitrem A survival assay (SLO-1 modulation), WMD isolate; assay type: cell-based; details: 0.25 µM penitrem A + emodepside 7.5 µg/mL, 24 h, mean ± SD
Method: as §4, §5
(§7) To further investigate the specific mechanism of emodepside action, the SLO-1 channel inhibitor penitrem A was co-incubated with emodepside. The concentration of emodepside was kept constant (7.5 µg/mL) while that of penitrem A was titrated from 1 µM to 0.05 µM. […] Survival was assessed as above.
(§8) Microsoft Excel was used to normalize raw survival percentages to their respective controls and calculate standard deviation for each condition. […] Using the mean, standard deviation, and sample size calculated in Excel, multiple unpaired t-tests were performed to determine the individual variance in means between WMD and BCR.

[6] = tested on: Ancylostoma caninum L3, triple-anthelmintic-resistant (BCR) isolate; test: Emodepside + penitrem A survival assay (SLO-1 modulation), BCR isolate; assay type: cell-based; details: 0.25 µM penitrem A + emodepside 7.5 µg/mL, 24 h, mean ± SD
Method: as §4, §5, §7, §8

With ivermectin the “Normalized survival of L3” value ([1]; low dose 4 µg/mL, 24 h, room temperature, dark, mean ± SD) was 14.9±9.7%, the “Normalized survival of L3” value ([2]; BCR L3, low dose 4 µg/mL, 24 h, room temperature, dark, mean ± SD) was 54.2±11.4% and the “Difference in mean survival between BCR and WMD” value [2] was 39.0 ± 3.0%. For the same molecule, the “Difference in mean survival between BCR and WMD” value ([2]; listed as ivermectin) was “approximately 40%”, the Aqueous solubility [3] was < 10 µg/mL and the Cmax ([4]; typical therapeutic dose 150–200 mg/kg, single oral administration) was 38 to 46 ng/mL.

In the case of `CN1CCCN=C1/C=C/c1cccs1` [Pyrantel, pyrantel pamoate], the “Percent survival of L3, normalized to vehicle control” value (“Percent survival of L3, normalized” for short) ([1]; 100 µg/mL, 24 h, room temperature, dark, mean ± SD) is reported as 43.9±13.7%, the “Mortality of L3” value ([1]; 10–50 µg/mL, 24 h) is reported as “almost no mortality” and the “Percent survival of L3, normalized” value ([2]; BCR L3, 100 µg/mL, 24 h, room temperature, dark, mean ± SD, difference to WMD not significant (p = 0.054)) is reported as 59.2±10.4%. The “Mortality of L3” value ([2]; BCR L3, 10–50 µg/mL, 24 h) was “almost no mortality”, the Cmax ([4]; in vivo, 100 mg/kg) was 110 ng/mL and the “Corresponding Cmax” value ([4]; in vivo) was 110 ng/mL.

With emodepside the “Percent survival of L3, normalized” value ([1]; 7.5 µg/mL, 24 h, mean ± SD) was 13.1% ± 4.1, the “Percent survival of L3, normalized” value ([1]; 30 µg/mL (maximum dose tested), 24 h, mean ± SD) was 3.4% ± 3.3 and the “IC50 (nonlinear regression of percent survival vs log concentration)” value ([1]; 24 h survival) was 2.81 µg/mL. The “Surviving L3” value ([2]; BCR L3, 30 µg/mL (maximum dose tested), 24 h) was “none”, the “IC50 (nonlinear regression of percent survival vs log concentration)” value ([2]; BCR L3, 24 h survival) was 1.77 µg/mL and the “Percent survival of L3” value ([2]; BCR L3, starting at 7.5 µg/mL, 24 h) was “killed all BCR larvae”. The “Difference in percent survival between WMD and BCR” value ([2]; WMD versus BCR L3, 3 µg/mL (greatest difference)) was 21.8±4.4, the “Greater effectiveness than drugs from other classes in reducing fecal egg count” value (MADR A. caninum) was “at least 50%” and the “Corresponding Cmax” value ([4]; in vivo) was 37 ng/mL.

In the case of penitrem A, the “Percent survival of L3 co-incubated with emodepside” value [5] is reported as 29.8% ± 11.5 and the “Percent survival of L3 co-incubated with emodepside” value [6] is reported as 78.2% ± 13.8.
